Measured values as given in patent publication US20180104224A1, “PHARMACEUTICAL COMPOSITIONS COMPRISING ANTIBACTERIAL AGENTS” (priority 2014, published 2018).

Assays:
[1] = system: highly resistant strains of Pseudomonas aeruginosa; assay: MIC determination, all strains; assay type: cell-based; conditions: highly resistant strains of P. aeruginosa
Procedure: (§1) The antibacterial activity of combinations according to the invention against resistant bacterial strains was investigated. Minimum Inhibitory Concentration (MIC) determination for the combinations according to invention was carried out in Muller Hinton Agar (MHA) (BD, USA) according to Clinical and Laboratory Standards Institute (CLSI) recommendations, (Clinical and Laboratory Standards Institute (CLSI), Performance Standards for Antimicrobial Susceptibility Testing, 20th Informational Supplement, M 100-S20, Volume 30, No. 1, 2010). In short, the test strains were adjusted to deliver about 10^4 CFU per spot with a multipoint inoculator (Applied Quality Services, UK). The plates were pored with MHA containing doubling concentration range of the test combinations according to invention. The plates were inoculated and were incubated at 35° C. for 18 hours.
The results on antibacterial activity of a carbapenem antibacterial agent selected from imipenem, meropenem, ertapenem and doripenem alone and in combination with Compound A or Compound B, against highly resistant strains of Pseudomonas aeruginosa are given in Table 1. […] For example, P. aeruginosa 2779 harbors resistance due to increased AmpC expression (300 times) and increased efflux; P. aeruginosa 1405 harbors resistance due to increased AmpC expression (600 times), reduced OprD expression and increased efflux; P. aeruginosa R 70 harbors resistance due to reduced OprD expression and increased efflux; and P. aeruginosa J 154 harbors resistance due to reduced OprD.

[2] = system: Pseudomonas aeruginosa R70; assay: Time kill study; assay type: cell-based; conditions: P. aeruginosa R70; for effect on bacterial counts through out the duration of the study (in words): when used alone
Procedure: (§2) The synergistic killing effect of the combinations according to invention was studied by performing time kill studies. In a typical time kill study, the freshly grown cultures were diluted to the required cell density (initial starting inoculum) in Cation adjusted Muller Hinton broth medium (BD, USA). The antibacterial agents (either alone or in combination) at the required concentrations were added into the culture-containing medium. The samples were incubated under shaking condition (120 rpm) at 37° C. Enumeration of viable bacterial count was done every 2 hour by diluting in normal saline and plating on to the Tryptic Soya Agar plates (BD, USA). The plates were incubated for 24 hours to arrive at the viable bacterial count. The results are expressed in terms of Log10 CFU per ml. In general, the decrease of 1 Log10 CFU/ml, corresponds to 90% killing of bacteria.

[3] = system: Pseudomonas aeruginosa 1405; assay: Time kill study; assay type: cell-based; conditions: P. aeruginosa 1405; for effect on bacterial counts through out the duration of the study (in words): when used alone
Procedure: as §2

P. aeruginosa 2779 = assay: MIC determination in Muller Hinton Agar (CLSI); assay type: cell-based, Pseudomonas aeruginosa; conditions: for MIC (mcg/ml) of carbapenem in presence of [A] at 4 mcg/ml: in presence of Compound A at 4 mcg/ml; for MIC (mcg/ml) of carbapenem in presence of [B] at 4 mcg/ml: in presence of Compound B at 4 mcg/ml;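 for all read-outs here: MIC read as lowest concentration giving complete growth inhibition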
Procedure: as §1

P. aeruginosa R 70 = assay: MIC determination in Muller Hinton Agar (CLSI);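 for MIC (mcg/ml) of carbapenem in presence of [A] at 4 mcg/ml: MIC read as lowest concentration giving complete growth inhibition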;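 for MIC (mcg/ml) of carbapenem in presence of [B] at 4 mcg/ml: MIC read as lowest concentration giving complete growth inhibition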; assay type: cell-based, Pseudomonas aeruginosa; conditions: for MIC: Pseudomonas aeruginosa, R70, 18 h, agent alone, P. aeruginosa R 70 [Reduced OprD + increased efflux]; for MIC (mcg/ml) of carbapenem in presence of [A] at 4 mcg/ml: in presence of Compound A at 4 mcg/ml; for MIC (mcg/ml) of carbapenem in presence of [A] at 4 mcg/ml / MIC (mcg/ml) of carbapenem in presence of [B] at 4 mcg/ml: P. aeruginosa R 70; for MIC (mcg/ml) of carbapenem in presence of [B] at 4 mcg/ml: in presence of Compound B at 4 mcg/ml
Procedure: as §1

P. aeruginosa J 154 = assay: MIC determination in Muller Hinton Agar (CLSI); assay type: cell-based, Pseudomonas aeruginosa; conditions: for MIC: Pseudomonas aeruginosa, J154, agent alone, P. aeruginosa J 154 [Reduced OprD]; for MIC (mcg/ml) of carbapenem in presence of [A] at 4 mcg/ml: in presence of Compound A at 4 mcg/ml; for MIC (mcg/ml) of carbapenem in presence of [A] at 4 mcg/ml / MIC (mcg/ml) of carbapenem in presence of [B] at 4 mcg/ml: P. aeruginosa J 154; for MIC (mcg/ml) of carbapenem in presence of [B] at 4 mcg/ml: in presence of Compound B at 4 mcg/ml
Procedure: as §1

P. aeruginosa 1405 = assay: MIC determination in Muller Hinton Agar (CLSI); assay type: cell-based, Pseudomonas aeruginosa; conditions: for MIC (mcg/ml) of carbapenem in presence of [A] at 4 mcg/ml: in presence of Compound A at 4 mcg/ml; for MIC (mcg/ml) of carbapenem in presence of [B] at 4 mcg/ml: in presence of Compound B at 4 mcg/ml;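 for all read-outs here: MIC read as lowest concentration giving complete growth inhibition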
Procedure: as §1

[4] = in presence of Compound A or Compound B
[5] = Table 4, single agent 16 mcg/ml
[6] = Table 5, single agent 16 mcg/ml
[7] = Table 2, single agent 16 mcg/ml
[8] = Table 3, single agent 16 mcg/ml

SMILES: C[C@@H](O)[C@H]1C(=O)N2C(C(=O)O)=C(S[C@@H]3CN[C@H](C(=O)Nc4cccc(C(=O)O)c4)C3)[C@H](C)[C@H]12 [Ertapenem, ertapenem]
- MIC values (in words) [1, 4]: decreased significantly
- MIC values (in words) ([1]; when used alone): higher MIC values
- effect on bacterial counts through out the duration of the study (in words) [2]: failed to reduce the bacterial counts
- Bacterial count (Log10 CFU/ml) 0 hour [2, 5]: 6.62 Log10 CFU/ml
- Bacterial count (Log10 CFU/ml) 2 hour [2, 5]: 6.87 Log10 CFU/ml
- Bacterial count (Log10 CFU/ml) 4 hour [2, 5]: 7.47 Log10 CFU/ml
- Bacterial count (Log10 CFU/ml) 6 hour [2, 5]: 8.16 Log10 CFU/ml
- Bacterial count (Log10 CFU/ml) 0 hour [2, 6]: 6.44 Log10 CFU/ml
- Bacterial count (Log10 CFU/ml) 2 hour [2, 6]: 6.46 Log10 CFU/ml
- Bacterial count (Log10 CFU/ml) 4 hours [2, 6]: 7.17 Log10 CFU/ml
- Bacterial count (Log10 CFU/ml) 6 hour [2, 6]: 7.13 Log10 CFU/ml
- effect on bacterial counts through out the duration of the study (in words) [3]: failed to reduce the bacterial counts
- Bacterial count (Log10 CFU/ml) 0 hour [3, 7]: 6.84 Log10 CFU/ml
- Bacterial count (Log10 CFU/ml) 2 hour [3, 7]: 6.90 Log10 CFU/ml
- Bacterial count (Log10 CFU/ml) 4 hour [3, 7]: 7.87 Log10 CFU/ml
- Bacterial count (Log10 CFU/ml) 6 hour [3, 7]: 7.65 Log10 CFU/ml
- Bacterial count (Log10 CFU/ml) 0 hour [3, 8]: 6.81 Log10 CFU/ml
- Bacterial count (Log10 CFU/ml) 2 hour [3, 8]: 6.90 Log10 CFU/ml
- Bacterial count (Log10 CFU/ml) 4 hour [3, 8]: 7.87 Log10 CFU/ml
- Bacterial count (Log10 CFU/ml) 6 hour [3, 8]: 7.65 Log10 CFU/ml
- MIC (mcg/ml) of carbapenem in presence of [A] at 4 mcg/ml (P. aeruginosa 2779): 4 µg/mL
- MIC (mcg/ml) of carbapenem in presence of [B] at 4 mcg/ml (P. aeruginosa 2779): 4 µg/mL
- MIC (P. aeruginosa R 70): > 128 µg/mL
- MIC (mcg/ml) of carbapenem in presence of [A] at 4 mcg/ml (P. aeruginosa R 70): >128 µg/mL
- MIC (mcg/ml) of carbapenem in presence of [B] at 4 mcg/ml (P. aeruginosa R 70): ≤0.12 µg/mL
- MIC (P. aeruginosa J 154): > 128 µg/mL
- MIC (mcg/ml) of carbapenem in presence of [A] at 4 mcg/ml (P. aeruginosa J 154): >128 µg/mL
- MIC (mcg/ml) of carbapenem in presence of [B] at 4 mcg/ml (P. aeruginosa J 154): 128 µg/mL
- MIC (mcg/ml) of carbapenem in presence of [A] at 4 mcg/ml (P. aeruginosa 1405): 128 µg/mL
- MIC (mcg/ml) of carbapenem in presence of [B] at 4 mcg/ml (P. aeruginosa 1405): 64 µg/mL

SMILES: C[C@@H](O)[C@H]1C(=O)N2C(C(=O)O)=C(S[C@@H]3CN[C@H](CNS(N)(=O)=O)C3)[C@H](C)[C@H]12 [Doripenem, doripenem]
- MIC values (in words) [1, 4]: decreased significantly
- MIC values (in words) ([1]; when used alone): higher MIC values
- effect on bacterial counts through out the duration of the study (in words) [2]: failed to reduce the bacterial counts
- Bacterial count (Log10 CFU/ml) 0 hour ([2]; Table 4, single agent 4 mcg/ml): 6.62 Log10 CFU/ml
- Bacterial count (Log10 CFU/ml) 2 hour ([2]; Table 4, single agent 4 mcg/ml): 5.74 Log10 CFU/ml
- Bacterial count (Log10 CFU/ml) 4 hour ([2]; Table 4, single agent 4 mcg/ml): 5.65 Log10 CFU/ml
- Bacterial count (Log10 CFU/ml) 6 hour ([2]; Table 4, single agent 4 mcg/ml): 5.65 Log10 CFU/ml
- Bacterial count (Log10 CFU/ml) 0 hour ([2]; Table 5, single agent 4 mcg/ml): 6.44 Log10 CFU/ml
- Bacterial count (Log10 CFU/ml) 2 hour ([2]; Table 5, single agent 4 mcg/ml): 5.74 Log10 CFU/ml
- Bacterial count (Log10 CFU/ml) 4 hours ([2]; Table 5, single agent 4 mcg/ml): 5.65 Log10 CFU/ml
- Bacterial count (Log10 CFU/ml) 6 hour ([2]; Table 5, single agent 4 mcg/ml): 5.65 Log10 CFU/ml
- effect on bacterial counts through out the duration of the study (in words) [3]: failed to reduce the bacterial counts
- Bacterial count (Log10 CFU/ml) 0 hour ([3]; Table 2, single agent 4 mcg/ml): 6.84 Log10 CFU/ml
- Bacterial count (Log10 CFU/ml) 2 hour ([3]; Table 2, single agent 4 mcg/ml): 6.17 Log10 CFU/ml
- Bacterial count (Log10 CFU/ml) 4 hour ([3]; Table 2, single agent 4 mcg/ml): 5.90 Log10 CFU/ml
- Bacterial count (Log10 CFU/ml) 6 hour ([3]; Table 2, single agent 4 mcg/ml): 6.60 Log10 CFU/ml
- Bacterial count (Log10 CFU/ml) 0 hour ([3]; Table 3, single agent 4 mcg/ml): 6.81 Log10 CFU/ml
- Bacterial count (Log10 CFU/ml) 2 hour ([3]; Table 3, single agent 4 mcg/ml): 6.17 Log10 CFU/ml
- Bacterial count (Log10 CFU/ml) 4 hour ([3]; Table 3, single agent 4 mcg/ml): 5.90 Log10 CFU/ml
- Bacterial count (Log10 CFU/ml) 6 hour ([3]; Table 3, single agent 4 mcg/ml): 6.60 Log10 CFU/ml
- MIC (mcg/ml) of carbapenem in presence of [A] at 4 mcg/ml (P. aeruginosa 2779): 0.12 µg/mL
- MIC (mcg/ml) of carbapenem in presence of [B] at 4 mcg/ml (P. aeruginosa 2779): 0.06 µg/mL
- MIC (P. aeruginosa R 70): 16 µg/mL
- MIC (mcg/ml) of carbapenem in presence of [A] at 4 mcg/ml (P. aeruginosa R 70): 8 µg/mL
- MIC (mcg/ml) of carbapenem in presence of [B] at 4 mcg/ml (P. aeruginosa R 70): <0.12 µg/mL
- MIC (P. aeruginosa J 154): 8 µg/mL
- MIC (mcg/ml) of carbapenem in presence of [A] at 4 mcg/ml (P. aeruginosa J 154): 8 µg/mL
- MIC (mcg/ml) of carbapenem in presence of [B] at 4 mcg/ml (P. aeruginosa J 154): 4 µg/mL
- MIC (mcg/ml) of carbapenem in presence of [A] at 4 mcg/ml (P. aeruginosa 1405): 4 µg/mL
- MIC (mcg/ml) of carbapenem in presence of [B] at 4 mcg/ml (P. aeruginosa 1405): 4 µg/mL
